Test [1] deals with T1, CD73 (Homo sapiens (Human), UniProt P21589). The test can be described thus: CD73 Biochemical IC50 Assay. To be noted: CD73 0.3 nM, AMP 15 uM, 25 mM Tris pH 7.4, 5 mM MgCl2. The method, then: CD73 Biochemical IC50 Assay
Compound serial dilutions were pre-spotted into Thermo Nunc assay plate. 50 μL CD73 enzyme buffer (CD73 purchased from R&D system=0.6 nM, 25 mM Tris, pH 7.4, 5 mM MgCl2) was added into the assay plate and incubated for 15 mins. […] The samples were run using Rapid fire.

In test [2] the target is T1, CD73. Put plainly: MDA-MB-231 Cell Based CD73 Activity Assay. To be noted: MDA-MB-231-GFP cells, RPMI medium with 10% human plasma, 200 uM AMP.
Test [3] deals with T1, CD73. The format is biochemical. The conditions noted are these: 1 mM NaH2PO4 in enzyme buffer, CD73 0.3 nM, AMP 15 uM.
Test [4] has as its target T1, CD73. Put plainly: MDA-MB-231 Cell Based CD73 Activity Assay (DMEM). The conditions noted are these: MDA-MB-231-GFP cells, DMEM medium with 10% human plasma, 200 uM AMP.

pEC50, pIC50: −log10 of the molar value. “And” between values parts separate entries of the source, which are not always exact repeats. Identical values can stand only once. Like-named read-outs stand apart in the source and are kept apart here.

T1 sequence (P21589 27-574): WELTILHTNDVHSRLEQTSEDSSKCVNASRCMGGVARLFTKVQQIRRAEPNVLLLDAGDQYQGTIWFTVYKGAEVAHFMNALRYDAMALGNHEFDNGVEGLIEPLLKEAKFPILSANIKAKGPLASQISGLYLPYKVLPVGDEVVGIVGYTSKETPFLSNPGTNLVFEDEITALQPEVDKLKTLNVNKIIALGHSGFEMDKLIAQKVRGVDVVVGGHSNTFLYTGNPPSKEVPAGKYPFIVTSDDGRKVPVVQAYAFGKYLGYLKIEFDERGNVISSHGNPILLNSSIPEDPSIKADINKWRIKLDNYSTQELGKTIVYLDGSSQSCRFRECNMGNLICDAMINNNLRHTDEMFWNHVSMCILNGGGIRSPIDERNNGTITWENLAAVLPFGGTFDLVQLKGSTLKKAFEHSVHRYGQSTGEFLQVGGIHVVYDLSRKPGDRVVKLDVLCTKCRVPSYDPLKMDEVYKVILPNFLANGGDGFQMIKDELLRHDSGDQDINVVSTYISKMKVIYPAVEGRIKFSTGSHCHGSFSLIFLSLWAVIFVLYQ

Turning to `O=c1[nH]cc(-c2cc([C@H]3C[C@@H]3c3ccccc3)c3nccn3n2)c(=O)[nH]1` (racemic) [Example 7, 5-(8-((1S,2S)-2-phenylcyclopropyl)imidazo[1,2-b]pyridazin-6-yl)pyrimidine-2,4-(1H,3H)-dione and 5-(8-((1R,2R)-2-phenylcyclopropyl)imidazo[1,2-b]pyridazin-6-yl)pyrimidine-2,4-(1H,3H)-dione], the pIC50 in test [1] was 7.87 and 7.89; in test [3] it was 9.03. For the same compound, the pEC50 was 8.68 and 8.73 in test [2]; 8.38 in test [4].

With `O=c1[nH]cc(-c2cc([C@H]3C[C@@H]3c3ccc(C(F)(F)F)cc3)c3nccn3n2)c(=O)[nH]1` (racemic) [Example 42, 5-[8-[(1S,2S)-2-[4-(trifluoromethyl)phenyl]cyclopropyl]imidazo[1,2-b]pyridazin-6-yl]-1H-pyrimidine-2,4-dione and 5-[8-[(1R,2R)-2-[4-(trifluoromethyl)phenyl]cyclopropyl]imidazo[1,2-b]pyridazin-6-yl]-1H-pyrimidine-2,4-dione], the negative logarithm of the IC50 (pIC50) is 7.54 in test [1] and 8.68 in test [3]. This compound also showed a pEC50 in test [2] of 8.12.

On to `O=c1[nH]cc(-c2cc([C@H]3C[C@@H]3c3ccccn3)c3nccn3n2)c(=O)[nH]1` (racemic) [Example 52, 5-[8-[(1S,2S)-2-(2-pyridyl)cyclopropyl]imidazo[1,2-b]pyridazin-6-yl]-1H-pyrimidine-2,4-dione and 5-[8-[(1R,2R)-2-(2-pyridyl)cyclopropyl]imidazo[1,2-b]pyridazin-6-yl]-1H-pyrimidine-2,4-dione], for which the pIC50 in test [1] was 7.70; in test [3] it was 8.94. Also, the pEC50 in test [2] is 8.57.

As to `O=c1[nH]cc(-c2cc([C@H]3C[C@@H]3c3cccnc3)c3nccn3n2)c(=O)[nH]1` (racemic) [Example 53, 5-[8-[(1S,2S)-2-(3-pyridyl)cyclopropyl]imidazo[1,2-b]pyridazin-6-yl]-1H-pyrimidine-2,4-dione and 5-[8-[(1R,2R)-2-(3-pyridyl)cyclopropyl]imidazo[1,2-b]pyridazin-6-yl]-1H-pyrimidine-2,4-dione], the pIC50 in test [1] was 7.68; in test [3] it was 8.82. Also, the pEC50 in test [2] is 8.29.

Consider `O=c1[nH]cc(-c2cc([C@H]3C[C@@H]3c3ccncc3)c3nccn3n2)c(=O)[nH]1` (racemic) [Example 54, 5-[8-[(1S,2S)-2-(4-pyridyl)cyclopropyl]imidazo[1,2-b]pyridazin-6-yl]-1H-pyrimidine-2,4-dione and 5-[8-[(1R,2R)-2-(4-pyridyl)cyclopropyl]imidazo[1,2-b]pyridazin-6-yl]-1H-pyrimidine-2,4-dione], for which the results for the pIC50 in test [1] and in test [3] were 7.75 and 8.70, respectively. In addition, the pEC50 in test [2] is 8.47.

`O=c1[nH]cc(-c2cc(N3C[C@H](F)[C@@H](F)C3)c3nccn3n2)c(=O)[nH]1` (racemic) [Example 73, 5-[8-[(3S,4S)-3,4-difluoropyrrolidin-1-yl]imidazo[1,2-b]pyridazin-6-yl]-1H-pyrimidine-2,4-dione and 5-[8-[(3R,4R)-3,4-difluoropyrrolidin-1-yl]imidazo[1,2-b]pyridazin-6-yl]-1H-pyrimidine-2,4-dione]: the pIC50 in test [1] was 7.40; in test [3] it was 8.01. The pEC50 in test [2] is 7.76; in test [4] it was 7.50.

In the case of `N#Cc1cc(F)cc([C@H]2C[C@@H]2c2cc(-c3c[nH]c(=O)[nH]c3=O)nn3ccnc23)c1` (racemic) [Example 85, 3-[(1S,2S)-2-[6-(2,4-dioxo-1H-pyrimidin-5-yl)imidazo[1,2-b]pyridazin-8-yl]cyclopropyl]-5-fluoro-benzonitrile and 3-[(1R,2R)-2-[6-(2,4-dioxo-1H-pyrimidin-5-yl)imidazo[1,2-b]pyridazin-8-yl]cyclopropyl]-5-fluoro-benzonitrile], the pIC50 in test [1] is 7.36; in test [3], 8.87. The figures for the pEC50 in test [2] and in test [4] were 8.22 and 7.75, respectively.

`O=c1[nH]cc(-c2cc(N3CCC3c3ccccc3)c3nccn3n2)c(=O)[nH]1` (stereo not shown) [Example 66, 5-(8-(2-phenylazetidin-1-yl)imidazo[1,2-b]pyridazin-6-yl)pyrimidine-2,4(1H,3H)-dione] had a pIC50 in test [1] of less than 5.60. Also, in test [2], the pEC50 was 5.35.

The compound `O=c1[nH]cc(-c2cc(C3CC3)c3ncc(F)n3n2)c(=O)[nH]1` [Example 69, 5-(8-cyclopropyl-3-fluoro-imidazo[1,2-b]pyridazin-6-yl)-1H-pyrimidine-2,4-dione] showed a pIC50 in test [1] of 7.26. In test [2], this compound had a pEC50 of 7.32.

`O=c1[nH]cc(-c2cc(-c3ccc(NCC4CC4)cc3)c3nccn3n2)c(=O)[nH]1` [Example 71, 5-[8-[4-(cyclopropylmethylamino)phenyl]imidazo[1,2-b]pyridazin-6-yl]-1H-pyrimidine-2,4-dione]: the pIC50 in test [1] is 5.83. The pEC50 in test [2] was 6.19.

The compound `O=c1[nH]cc(-c2cc(C3CC3)c3nc(C4CC4)cn3n2)c(=O)[nH]1` [Example 75, 5-(2,8-dicyclopropylimidazo[1,2-b]pyridazin-6-yl)-1H-pyrimidine-2,4-dione] had a negative-log IC50 (pIC50) in test [1] of 6.90. The compound also gave a pEC50 in test [2] of 6.87.

`O=c1[nH]cc(-c2cc(-n3cccn3)c3nccn3n2)c(=O)[nH]1` [Example 78, 5-(8-pyrazol-1-ylimidazo[1,2-b]pyridazin-6-yl)-1H-pyrimidine-2,4-dione] had a pIC50 in test [1] of 5.72. In addition, the pEC50 in test [2] is 5.91.

In test [1], `O=c1[nH]cc(-c2cc([C@H]3C[C@@H]3c3ccc(F)cc3F)c3ncc(F)n3n2)c(=O)[nH]1` [Example 88, 5-[8-[(1S,2S)-2-(2,4-difluorophenyl)cyclopropyl]-3-fluoro-imidazo[1,2-b]pyridazin-6-yl]-1H-pyrimidine-2,4-dione] had a negative-log IC50 (pIC50) of 8.04. In test [2], this compound showed a pEC50 of 8.53.

`CC1(C)CCN(c2cc(-c3c[nH]c(=O)[nH]c3=O)nn3ccnc23)CC1` [Example 89, 5-[8-(4,4-dimethyl-1-piperidyl)imidazo[1,2-b]pyridazin-6-yl]-1H-pyrimidine-2,4-dione] gave a pIC50 in test [1] of 6.67. In test [2], this compound gave a pEC50 of 6.61.

In test [1], `O=c1[nH]cc(-c2cc([C@H]3C[C@@H]3c3ccc(F)c(F)c3)c3ncc(F)n3n2)c(=O)[nH]1` [Example 90, 5-[8-[(1S,2S)-2-(3,4-difluorophenyl)cyclopropyl]-3-fluoro-imidazo[1,2-b]pyridazin-6-yl]-1H-pyrimidine-2,4-dione] gave a pIC50 of 8.00. The pEC50 in test [2] was 8.75.

Turning to `CC1(C)CCN(c2cc(-c3c[nH]c(=O)[nH]c3=O)nc3ccnn23)C1` [Example 91, 5-(7-(3,3-dimethylpyrrolidin-1-yl)pyrazolo[1,5-a]pyrimidin-5-yl)pyrimidine-2,4(1H,3H)-dione], the pIC50 in test [1] was 6.98. In test [2], this compound gave a pEC50 of 7.21.

For `CC1(C)CCN(c2cc(-c3c[nH]c(=O)[nH]c3=O)nc3ncnn23)C1` [Example 92, 5-(7-(3,3-dimethylpyrrolidin-1-yl)-[1,2,4]triazolo[1,5-a]pyrimidin-5-yl)pyrimidine-2,4(1H,3H)-dione], the pIC50 in test [1] is 7.81; in test [3], 8.18. The pEC50 in test [2] is 7.63.

`O=c1[nH]cc(-c2cc(N3CC4CCC(C4)C3)c3nccn3n2)c(=O)[nH]1` [Example 94, 5-(8-(3-azabicyclo[3.2.1]octan-3-yl)imidazo[1,2-b]pyridazin-6-yl)pyrimidine-2,4(1H,3H)-dione] showed a pIC50 in test [1] of 6.88. In test [2], the pEC50 is 7.12.

Consider `O=c1[nH]cc(-c2cc(C3CC3)c3nc(-c4ccccc4C(F)(F)F)cn3n2)c(=O)[nH]1` [Example 96, 5-(8-cyclopropyl-2-(2-(trifluoromethyl)phenyl)imidazo[1,2-b]pyridazin-6-yl)pyrimidine-2,4(1H,3H)-dione], for which, in test [1], the pIC50 is 6.11. In test [2], this compound gave a pEC50 of 7.18.

`O=c1[nH]cc(-c2cc(C3CC3)c3nc(-c4ccncc4)cn3n2)c(=O)[nH]1` [Example 97, 5-(8-cyclopropyl-2-(pyridin-4-yl)imidazo[1,2-b]pyridazin-6-yl)pyrimidine-2,4(1H,3H)-dione] had a pIC50 in test [1] of less than 5.60. The compound also had a pEC50 in test [2] of 5.69.

For `O=c1[nH]cc(-c2cc(C3CC3)c3nc(-c4cccnc4)cn3n2)c(=O)[nH]1` [Example 102, 5-(8-cyclopropyl-2-(pyridin-3-yl)imidazo[1,2-b]pyridazin-6-yl)pyrimidine-2,4(1H,3H)-dione], the pIC50 in test [1] was 6.33. The compound further had a pEC50 in test [2] of 6.59.

For `O=c1[nH]cc(-c2cc(C3CC3)c3nc(-c4ccccn4)cn3n2)c(=O)[nH]1` [Example 103, 5-(8-cyclopropyl-2-(pyridin-2-yl)imidazo[1,2-b]pyridazin-6-yl)pyrimidine-2,4(1H,3H)-dione], in test [1], the negative-log IC50 (pIC50) is 7.15. In addition, the pEC50 in test [2] was 7.35.

In the case of `O=c1[nH]cc(-c2cc(N3CC(F)(F)C(F)(F)C3)c3nccn3n2)c(=O)[nH]1` [Example 109, 5-(8-(3,3,4,4-tetrafluoropyrrolidin-1-yl)imidazo[1,2-b]pyridazin-6-yl)pyrimidine-2,4(1H,3H)-dione], the pIC50 in test [1] is 7.35; in test [3], 8.53. In addition, the pEC50 in test [2] is 7.89.

For the origin of these results see patent US20240043427A1 (Gilead Sciences, Inc., priority 2020, published 2024).
